From BindingDB's records for doi:10.1111/j.1432-1033.1992.tb17252.x (Universit&Eacute, 1992)
Non-standard residues stand in square brackets, D forms with d. Residues, ends and D or L forms follow the SMILES beside them. ξ: configuration not given here. Ile(3ξ) = CCC(C)[C@H](N)C(=O)O

molecular target: T1, Pituitary adenylate cyclase-activating polypeptide (Homo sapiens, UniProt P18509)
T1 sequence (P18509 whole entry): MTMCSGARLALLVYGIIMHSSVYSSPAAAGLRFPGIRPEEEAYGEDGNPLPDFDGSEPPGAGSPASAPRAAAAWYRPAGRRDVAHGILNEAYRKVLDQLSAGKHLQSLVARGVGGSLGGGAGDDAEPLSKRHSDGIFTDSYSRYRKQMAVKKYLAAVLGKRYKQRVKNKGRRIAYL

Ki | Structure (SMILES)
500 nM | CCC(C)[C@H](NC(=O)CN)C(=O)N[C@@H](Cc1ccccc1)C(=O)N[C@H](C(=O)N[C@@H](CC(=O)O)C(=O)N[C@@H](CO)C(=O)N[C@@H](Cc1ccc(O)cc1)C(=O)N[C@@H](CO)C(=O)N[C@@H](CCCN=C(N)N)C(=O)N[C@@H](Cc1ccc(O)cc1)C(=O)N[C@@H](CCCN=C(N)N)C(=O)N[C@@H](CCCCN)C(=O)N[C@@H](CCC(N)=O)C(=O)N[C@@H](CCSC)C(=O)N[C@@H](C)C(=O)N[C@H](C(=O)N[C@@H](CCCCN)C(=O)N[C@@H](CCCCN)C(=O)N[C@@H](Cc1ccc(O)cc1)C(=O)N[C@@H](CC(C)C)C(=O)N[C@@H](C)C(=O)N[C@@H](C)C(=O)N[C@H](C(=O)N[C@@H](CC(C)C)C(N)=O)C(C)C)C(C)C)[C@@H](C)O (some centres not stated) [PACAP(4-27)] (H-G[Ile(3ξ)]FTDSYSRYRKQMAVKKYLAAVL-NH2)
150 nM | CSCC[C@H](NC(=O)[C@H](CCC(N)=O)NC(=O)[C@H](CCCCN)NC(=O)[C@H](CCCN=C(N)N)NC(=O)[C@H](Cc1ccc(O)cc1)NC(=O)[C@H](CCCN=C(N)N)NC(=O)[C@H](CO)NC(=O)[C@H](Cc1ccc(O)cc1)NC(=O)[C@H](CO)NC(=O)[C@H](CC(=O)O)NC(=O)[C@@H](NC(=O)[C@@H](N)Cc1ccccc1)[C@@H](C)O)C(=O)N[C@@H](C)C(=O)N[C@H](C(=O)N[C@@H](CCCCN)C(=O)N[C@@H](CCCCN)C(=O)N[C@@H](Cc1ccc(O)cc1)C(=O)N[C@@H](CC(C)C)C(=O)N[C@@H](C)C(=O)N[C@@H](C)C(=O)N[C@H](C(=O)N[C@@H](CC(C)C)C(N)=O)C(C)C)C(C)C [PACAP(5-27)] (H-FTDSYSRYRKQMAVKKYLAAVL-NH2)
100 nM | CSCC[C@H](NC(=O)[C@H](CCC(N)=O)NC(=O)[C@H](CCCCN)NC(=O)[C@H](CCCN=C(N)N)NC(=O)[C@H](Cc1ccc(O)cc1)NC(=O)[C@H](CCCN=C(N)N)NC(=O)[C@H](CO)NC(=O)[C@H](Cc1ccc(O)cc1)NC(=O)[C@H](CO)NC(=O)[C@H](CC(=O)O)NC(=O)[C@@H](N)[C@@H](C)O)C(=O)N[C@@H](C)C(=O)N[C@H](C(=O)N[C@@H](CCCCN)C(=O)N[C@@H](CCCCN)C(=O)N[C@@H](Cc1ccc(O)cc1)C(=O)N[C@@H](CC(C)C)C(=O)N[C@@H](C)C(=O)N[C@@H](C)C(=O)N[C@H](C(=O)N[C@@H](CC(C)C)C(N)=O)C(C)C)C(C)C [PACAP(6-27)] (H-TDSYSRYRKQMAVKKYLAAVL-NH2)

The next lines start with the compound.

Structure (SMILES) | Ki
CCC(C)[C@H](NC(=O)CNC(=O)[C@@H](N)CC(=O)O)C(=O)N[C@@H](Cc1ccccc1)C(=O)N[C@H](C(=O)N[C@@H](CC(=O)O)C(=O)N[C@@H](CO)C(=O)N[C@@H](Cc1ccc(O)cc1)C(=O)N[C@@H](CO)C(=O)N[C@@H](CCCN=C(N)N)C(=O)N[C@@H](Cc1ccc(O)cc1)C(=O)N[C@@H](CCCN=C(N)N)C(=O)N[C@@H](CCCCN)C(=O)N[C@@H](CCC(N)=O)C(=O)N[C@@H](CCSC)C(=O)N[C@@H](C)C(=O)N[C@H](C(=O)N[C@@H](CCCCN)C(=O)N[C@@H](CCCCN)C(=O)N[C@@H](Cc1ccc(O)cc1)C(=O)N[C@@H](CC(C)C)C(=O)N[C@@H](C)C(=O)N[C@@H](C)C(=O)N[C@H](C(=O)N[C@@H](CC(C)C)C(=O)NCC(=O)N[C@@H](CCCCN)C(=O)N[C@@H](CCCN=C(N)N)C(=O)N[C@@H](Cc1ccc(O)cc1)C(=O)N[C@@H](CCCCN)C(=O)N[C@@H](CCC(N)=O)C(=O)N[C@@H](CCCN=C(N)N)C(=O)N[C@H](C(=O)N[C@@H](CCCCN)C(=O)N[C@@H](CC(N)=O)C(=O)N[C@@H](CCCCN)C(N)=O)C(C)C)C(C)C)C(C)C)[C@@H](C)O (some centres not stated) [PACAP(3-38)] (H-DG[Ile(3ξ)]FTDSYSRYRKQMAVKKYLAAVLGKRYKQRVKNK-NH2) | 29 nM
CSCC[C@H](NC(=O)[C@H](CCC(N)=O)NC(=O)[C@H](CCCCN)NC(=O)[C@H](CCCN=C(N)N)NC(=O)[C@H](Cc1ccc(O)cc1)NC(=O)[C@H](CCCN=C(N)N)NC(=O)[C@H](CO)NC(=O)[C@H](Cc1ccc(O)cc1)NC(=O)[C@H](CO)NC(=O)[C@@H](N)CC(=O)O)C(=O)N[C@@H](C)C(=O)N[C@H](C(=O)N[C@@H](CCCCN)C(=O)N[C@@H](CCCCN)C(=O)N[C@@H](Cc1ccc(O)cc1)C(=O)N[C@@H](CC(C)C)C(=O)N[C@@H](C)C(=O)N[C@@H](C)C(=O)N[C@H](C(=O)N[C@@H](CC(C)C)C(N)=O)C(C)C)C(C)C [PACAP(8-27)] (H-DSYSRYRKQMAVKKYLAAVL-NH2) | 1300 nM
CSCC[C@H](NC(=O)[C@H](CCC(N)=O)NC(=O)[C@H](CCCCN)NC(=O)[C@H](CCCN=C(N)N)NC(=O)[C@H](Cc1ccc(O)cc1)NC(=O)[C@H](CCCN=C(N)N)NC(=O)[C@H](CO)NC(=O)[C@H](Cc1ccc(O)cc1)NC(=O)[C@H](CO)NC(=O)[C@@H](N)CC(=O)O)C(=O)N[C@@H](C)C(=O)N[C@H](C(=O)N[C@@H](CCCCN)C(=O)N[C@@H](CCCCN)C(=O)N[C@@H](Cc1ccc(O)cc1)C(=O)N[C@@H](CC(C)C)C(=O)N[C@@H](C)C(=O)N[C@@H](C)C(=O)N[C@H](C(=O)N[C@@H](CC(C)C)C(=O)NCC(=O)N[C@@H](CCCCN)C(=O)N[C@@H](CCCN=C(N)N)C(=O)N[C@@H](Cc1ccc(O)cc1)C(=O)N[C@@H](CCCCN)C(=O)N[C@@H](CCC(N)=O)C(=O)N[C@@H](CCCN=C(N)N)C(=O)N[C@H](C(=O)N[C@@H](CCCCN)C(=O)N[C@@H](CC(N)=O)C(=O)N[C@@H](CCCCN)C(N)=O)C(C)C)C(C)C)C(C)C [PACAP(8-38)] (H-DSYSRYRKQMAVKKYLAAVLGKRYKQRVKNK-NH2) | 30 nM
CSCC[C@H](NC(=O)[C@H](CCC(N)=O)NC(=O)[C@H](CCCCN)NC(=O)[C@H](CCCN=C(N)N)NC(=O)[C@H](Cc1ccc(O)cc1)NC(=O)[C@H](CCCN=C(N)N)NC(=O)[C@H](CO)NC(=O)[C@H](Cc1ccc(O)cc1)NC(=O)[C@@H](N)CO)C(=O)N[C@@H](C)C(=O)N[C@H](C(=O)N[C@@H](CCCCN)C(=O)N[C@@H](CCCCN)C(=O)N[C@@H](Cc1ccc(O)cc1)C(=O)N[C@@H](CC(C)C)C(=O)N[C@@H](C)C(=O)N[C@@H](C)C(=O)N[C@H](C(=O)N[C@@H](CC(C)C)C(=O)NCC(=O)N[C@@H](CCCCN)C(=O)N[C@@H](CCCN=C(N)N)C(=O)N[C@@H](Cc1ccc(O)cc1)C(=O)N[C@@H](CCCCN)C(=O)N[C@@H](CCC(N)=O)C(=O)N[C@@H](CCCN=C(N)N)C(=O)N[C@H](C(=O)N[C@@H](CCCCN)C(=O)N[C@@H](CC(N)=O)C(=O)N[C@@H](CCCCN)C(N)=O)C(C)C)C(C)C)C(C)C [PACAP(9-38)] (H-SYSRYRKQMAVKKYLAAVLGKRYKQRVKNK-NH2) | 50 nM
